Counter-ions that a name gives are not always drawn. Like-named read-outs stand apart in the source and are kept apart here.
Assays:
Format in all cases: cell-based
[1] = system: E. coli (ATCC 25922); experiment: MIC determination, sensitization fold and FIC index on E. coli; settings: for Sensitization: compound up to 25 μM; for MIC: Escherichia coli; for MIC of AB with MD-124: MD-124 concentration 5 μg/ml
Experimental: Bacteria culture and MICs determination: Gram-negative bacteria were cultured in Mueller Hinton II cation-adjusted broth. Gram-positive bacteria were cultured in LB broth. Mycobacterium smegmatis was cultured in Middlebrook 7H9 Broth. MICs of antibiotics itself were determined by performing two-fold serial dilutions of antibiotics. MICs of antibiotics in the presence of bacterial sensitizers were determined by performing two-fold serial dilutions of antibiotics with or without a constant concentration of bacterial sensitizers. The MICs tests were performed on 96-well plates with a final volume of 200 μl Mueller Hinton II cation-adjusted broth in each well. Each well was inoculated with 5×10^5 CFU/ml bacteria and was incubated for 24 h at 37° C. with continuous shaking of 200 rpm. The bacterial density was then determined by OD600. Bacterial growth %=OD600 of antibiotic treatment group/OD600 of antibiotic non-treatment group. MICs was determined as the concentrations that inhibit more than 90% of bacteria growth.
Sensitization fold determination and FIC index calculations: Sensitization fold=MIC of antibiotic only/MIC of antibiotic with bacterial sensitizer. […] Since the MICs were determined by performing two-fold serial dilutions of antibiotic, so the sensitization fold can is the times of 2.
FIC index between compound a and b was calculated according to the formula below: […]
FIC≤0.5: Synergy; FIC between 0.5 and 1: Additive; FIC between 1 and […]: no interaction; FIC >4: antagonism.
Bacteria strains (as indicated in Table 5B) were cultured with rifampicin at various concentrations in the presence or absence of 10 μM of the indicated compound for 20 h at 37° C. The MIC, sensitization, cytotoxicity, and MIC on mycobacteria were tested according to methods described herein. […] The sensitization activities of compounds on MRSA were tested using rifampicin. The sensitization activities of compounds on E. coli were tested using rifampicin.

[2] = system: B. subtilis; experiment: MIC determination and sensitization fold on B. subtilis; settings: for MIC: Bacillus subtilis, 24 h, compound alone, read-out: MIC
[3] = Cytotoxicity in H9c2 cells (CCK-8); settings: rat, H9c2 cells; H9c2 cell line
Experimental: The cytotoxicity in H9c2 (ATCC®CRL-1446™) cells was also determined. The H9c2 cells were maintained in DMEM (Dulbecco's Modified Eagle's Medium) supplemented with 10% fetal bovine serum (MidSci; S01520HI) and 1% penicillin-streptomycin (Sigma-Aldrich; P4333) at 37° C. with 5% CO2. The H9c2 cells were seeded in 96-well plate one day before the experiment. Different concentrations of di-amidine compounds were added into the H9c2 cells. The cells were then incubated with the compounds for 24 hours at 37° C. with 5% CO2. The cell viability was tested by the CCK-8. Specifically, after 24 hour incubation, 10 μL CCK-8 was added to each well. After 3 hours incubation at 37° C., the absorbance at 450 nm was recorded by a plate reader.

[4] = system: mcr-1 over-expressing E. coli strains; experiment: microbe, parasite or virus in culture; settings: Escherichia coli
[5] = ATCC25922, 24 h, E. coli, compound alone, read-out: MIC
[6] = B. subtilis, erythromycin, compound at 12 μM
[7] = E. coli towards the antibiotic, MD-124 5 μg/ml
[8] = ATCC25922, 24 h, E. coli (wild type), antibiotic alone, read-out: MIC of AB only

Compound: polymyxin B nonapeptide [PMBN, reference compound]
- Sensitization fold ([1]; E. coli, rifampicin, 20 μg/ml bacterial sensitizer): 16 fold

Compound: Cc1cc(-c2nc3cc(C(=N)N)ccc3n2C)sc1-c1ccc(OCCCCOc2ccc(C(=N)N)cc2)cc1 [DB2583]
- Sensitization ([1]; E. coli, rifampicin): No effect up to 25 μM
- MIC [1, 5]: 100 µM
- Sensitization fold [2, 6]: 16-fold at 12 μM
- MIC ([2]; B. subtilis): 25 µM
- CC50 at 24 h [3]: 12.5 µM

Compound: CC[C@H]1OC(=O)[C@H](C)[C@@H](O[C@H]2C[C@@](C)(OC)[C@@H](O)[C@H](C)O2)[C@H](C)[C@@H](O[C@@H]2O[C@H](C)C[C@H](N(C)C)[C@H]2O)[C@](C)(O)C[C@@H](C)C(=O)[C@H](C)[C@@H](O)[C@]1(C)O [Erythromycin, reference compound]
- MIC of AB with MD-124 ([1]; E. coli): 400 ng/mL
- MIC ([1]; ATCC25922, read-out: MIC of erythromycin in the presence of 10 μg/ml MD-100, wild-type E. coli): 1600 ng/mL
- MIC of erythromycin in the absence of DB2560 ([2]; B. subtilis): 0.05 ng/mL
- MIC of erythromycin in the presence of DB2560 ([2]; B. subtilis): 0.0015 ng/mL

Compound: CO[C@H]1/C=C/O[C@@]2(C)Oc3c(C)c(O)c4c(O)c(c5c(nc6cc(C)ccn65)c4c3C2=O)NC(=O)/C(C)=C\C=C\[C@H](C)[C@H](O)[C@@H](C)[C@@H](O)[C@@H](C)[C@H](OC(C)=O)[C@@H]1C [Rifaximin, reference compound]
- Sensitization fold [1, 7]: 64 fold
- MIC of AB with MD-124 ([1]; E. coli): 200 ng/mL
- MIC [1, 8]: 12500 ng/mL

Compound: c1cc(COc2ccc(C3=NCCN3)cc2)cc(COc2ccc(C3=NCCN3)cc2)c1 [DB2538, 1,3-Bis {(4-(2-imidazolino))-phenoxymethyl}-benzene dihydrochloride]
- Sensitization ([1]; E. coli, rifampicin): No effect up to 25 μM
- MIC [1, 5]: > 50 µM
- Sensitization fold [2, 6]: 4-fold at 12 μM
- MIC ([2]; B. subtilis): > 50 µM
- CC50 at 24 h [3]: < 12.5 µM

Compound: C[C@@H](O)[C@H]1C(=O)N2C(C(=O)O)=C(S[C@@H]3CN[C@H](C(=O)Nc4cccc(C(=O)O)c4)C3)[C@H](C)[C@H]12 [entrapenem, reference compound]
- sensitization fold with 5.5 μg/ml DB2560 ([2]; B. subtilis towards the antibiotic): 4 fold

Compound: N=C(N)c1ccc(OCCCCCCOc2ccc(C(=N)N)cc2)cc1 [DB2362]
- Sensitization fold ([1]; E. coli, rifampicin, compound at 25 μM): 8-fold at 25 μM;
- MIC [1, 5]: 50 µM
- Sensitization fold ([2]; B. subtilis, erythromycin, compound at 6 μM): 4-fold at 6 μM
- CC50 at 24 h [3]: 25 µM

Compound: Fc1c(COc2ccc(C3=NCCN3)cc2)cccc1COc1ccc(C2=NCCN2)cc1 [DB2510, 1,3-Bis {(4-(2-imidazolino))-phenoxymethyl}-2-fluorobenzene dihydrochloride]
- Sensitization ([1]; E. coli, rifampicin): No effect up to 25 μM
- MIC [1, 5]: > 50 µM
- CC50 at 24 h [3]: 25 µM

Compound: N=C(N)c1ccc(OCc2cccc(COc3ccc(C(N)=O)cc3)n2)cc1 [DB2449]
- Sensitization ([1]; E. coli, rifampicin): No effect up to 25 μM
- MIC [1, 5]: > 100 µM
- Sensitization ([2]; B. subtilis, erythromycin, compound up to 25 μM): No effect up to 25 μM
- MIC ([2]; B. subtilis): > 50 µM
- CC50 at 24 h [3]: > 100 µM

Compound: CC[C@H]1OC(=O)[C@H](C)[C@@H](O[C@H]2C[C@@](C)(OC)[C@@H](O)[C@H](C)O2)[C@H](C)[C@@H](O[C@@H]2O[C@H](C)C[C@H](N(C)C)[C@H]2O)[C@](C)(OC)C[C@@H](C)C(=O)[C@H](C)[C@@H](O)[C@]1(C)O [Clarithromycin]
- MIC ([4]; mcr-1 over-expression E. coli strain (MIC of polymyxin B 30 μg/ml), read-out: MIC of AB only): 25000 ng/mL
- MIC ([4]; read-out: MIC of AB with 5 μg/ml MD-124, mcr-1 over-expression E. coli strain (MIC of polymyxin B 30 μg/ml)): ≤ 200 ng/mL

Compound: N[C@@H]1CCCCN(c2c(F)cc3c(=O)c(C(=O)O)cn(C4CC4)c3c2Cl)C1 [Besifloxacin, reference compound]
- Sensitization fold [1, 7]: 8 fold
- MIC of AB with MD-124 ([1]; E. coli): 12.5 ng/mL
- MIC [1, 8]: 100 ng/mL

Compound: COc1cc(C2=NCCN2)ccc1OCc1cccc(COc2ccc(C3=NCCN3)cc2OC)c1F [DB2555, dihydrochloride]
- Sensitization ([1]; E. coli, rifampicin): No effect up to 25 μM
- MIC [1, 5]: > 50 µM
- CC50 at 24 h [3]: 50 µM

Source: patent US20230105108A1, “COMPOUNDS FOR THE TREATMENT OF BACTERIAL INFECTIONS AND POTENTIATION OF ANTIBIOTICS” (GEORGIA STATE UNIVERSITY RESEARCH FOUNDATION, INC., priority 2019, published 2023)
